Data from ChEMBL document CHEMBL3045544, “Synthesis, antimicrobial and antioxidant activities of some new indole derivatives containing pyridopyrimidine and pyrazolopyridine moieties” (Med Chem Res, 2013).

Tests used:
[1] = tested on: Aspergillus terreus; assay: Antimicrobial activity against Aspergillus terreus MTCC 1782 assessed as diameter of growth inhibition zone at 500 ug/ml after 72 hr by cup-plate method; assay type: functional; conditions: MTCC 1782, 72 h, read-out: DIZ
[2] = tested on: Pseudomonas aeruginosa; assay: Antimicrobial activity against Pseudomonas aeruginosa MTCC 1688 assessed as diameter of growth inhibition zone at 500 ug/ml after 24 hr by cup-plate method; assay type: functional; conditions: MTCC 1688, 24 h, read-out: DIZ
[3] = tested on: Escherichia coli; assay: Antimicrobial activity against Escherichia coli MTCC 723 assessed as diameter of growth inhibition zone at 500 ug/ml after 24 hr by cup-plate method; assay type: functional; conditions: MTCC 723, 24 h, read-out: DIZ
[4] = tested on: Aspergillus oryzae; assay: Antimicrobial activity against Aspergillus oryzae MTCC 3567 assessed as diameter of growth inhibition zone at 500 ug/ml after 72 hr by cup-plate method; assay type: functional; conditions: MTCC 3567, 72 h, read-out: DIZ
[5] = tested on: Aspergillus flavus; assay: Antimicrobial activity against Aspergillus flavus MTCC 1973 assessed as diameter of growth inhibition zone at 500 ug/ml after 72 hr by cup-plate method; assay type: functional; conditions: MTCC 1973, 72 h, read-out: DIZ
[6] = tested on: Klebsiella pneumoniae; assay: Antimicrobial activity against Klebsiella pneumoniae NCTC 13368 assessed as diameter of growth inhibition zone at 500 ug/ml after 24 hr by cup-plate method; assay type: functional; conditions: NCTC 13368, 24 h, read-out: DIZ
[7] = tested on: Staphylococcus aureus; assay: Antimicrobial activity against Staphylococcus aureus ATCC 29513 assessed as diameter of growth inhibition zone at 500 ug/ml after 24 hr by cup-plate method; assay type: functional; conditions: ATCC 29513, 24 h, read-out: DIZ
[8] = tested on: Aspergillus niger; assay: Antimicrobial activity against Aspergillus niger MTCC 281 assessed as diameter of growth inhibition zone at 500 ug/ml after 72 hr by cup-plate method; assay type: functional; conditions: MTCC 281, 72 h, read-out: DIZ
[9] = tested on: Radical scavenging activity; assay: Antioxidant activity assessed as DPPH radical scavenging activity at 25 ug/ml by spectrophotometric analysis; assay type: functional
[10] = tested on: Radical scavenging activity; assay: Antioxidant activity assessed as DPPH radical scavenging activity at 100 ug/ml by spectrophotometric analysis; assay type: functional
[11] = tested on: Radical scavenging activity; assay: Antioxidant activity assessed as DPPH radical scavenging activity at 75 ug/ml by spectrophotometric analysis; assay type: functional
[12] = Metal chelating activity of the compound assessed as inhibition of ferrozine Fe2+ complex formation at 25 to 100 ug/ml after 10 min by spectrophotometric analysis; assay type: physicochemical
[13] = Antioxidant activity assessed as ferric ion reducing activity after 20 min by FRAP assay; assay type: functional
[14] = tested on: Radical scavenging activity; assay: Antioxidant activity assessed as DPPH radical scavenging activity at 50 ug/ml by spectrophotometric analysis; assay type: functional

Row | inhibition (INH) [12] | SMILES | zone of inhibition at 500 µg/mL [1] | zone of inhibition at 500 µg/mL [2] | zone of inhibition at 500 µg/mL [3] | zone of inhibition at 500 µg/mL [4] | zone of inhibition at 500 µg/mL [5] | zone of inhibition at 500 µg/mL [6] | zone of inhibition at 500 µg/mL [7] | zone of inhibition at 500 µg/mL [8] | Activity [9] | Activity [10] | Activity [11] | Activity [13] | Activity [14]
1 | – | Nc1ncnc2nc(-c3ccc(Cl)cc3)cc(-c3c(-c4ccccc4)[nH]c4ccccc34)c12 | 10 mm | 2 mm | 8 mm | 2 mm | 8 mm | 5 mm | 10 mm | 10 mm | 66.8% | – | – | – | –
2 | – | O=c1[nH]cnc2nc(-c3ccccc3)cc(-c3c(-c4ccccc4)[nH]c4ccc(Cl)cc34)c12 | 10 mm | 8 mm | 12 mm | 12 mm | 9 mm | 14 mm | 5 mm | 12 mm | – | 78.8% | 74.1% | – | –
3 | Active | Cc1ccc(-c2cc(-c3c(-c4ccccc4)[nH]c4ccc(Cl)cc34)c3c(N)n[nH]c3n2)cc1 | 11 mm | 9 mm | 6 mm | 10 mm | 5 mm | 9 mm | 10 mm | 8 mm | – | – | – | Dose-dependent effect | –
4 | – | Cc1ccc2[nH]c(-c3ccccc3)c(-c3cc(-c4ccc(Cl)cc4)nc4nc[nH]c(=O)c34)c2c1 | 9 mm | 8 mm | 8 mm | 8 mm | 8 mm | 6 mm | 9 mm | 11 mm | – | – | – | – | 72.7%
5 | – | Nc1n[nH]c2nc(-c3ccccc3)cc(-c3c(-c4ccccc4)[nH]c4ccccc34)c12 | 8 mm | 11 mm | 10 mm | 12 mm | 6 mm | 10 mm | 8 mm | 10 mm | – | – | – | – | 75.5%
6 | – | Cc1ccc(-c2cc(-c3c(-c4ccccc4)[nH]c4ccc(C)cc34)c3c(=O)[nH]cnc3n2)cc1 | 10 mm | 10 mm | 5 mm | 8 mm | 5 mm | 12 mm | 8 mm | 10 mm | 74.4% | – | – | – | –
7 | – | Cc1ccc(-c2cc(-c3c(-c4ccccc4)[nH]c4ccc(Cl)cc34)c3c(=O)[nH]cnc3n2)cc1 | 9 mm | 5 mm | 10 mm | 10 mm | 8 mm | 11 mm | 8 mm | 11 mm | 61.5% | – | – | – | –
8 | – | Cc1ccc2[nH]c(-c3ccccc3)c(-c3cc(-c4ccccc4)nc4[nH]nc(N)c34)c2c1 | 5 mm | 5 mm | 8 mm | 14 mm | 6 mm | 9 mm | 10 mm | 2 mm | – | 68.2% | 75.2% | Dose-dependent effect | –
